Values of other authors in patent publication US20130237556A1, “BERBERINE ALKALOID AS A MEDICAMENT FOR PREVENTION AND TREATMENT OF NEURAL DISEASE” (HONG KONG BAPTIST UNIVERSITY, priority 2012, published 2013).

Test system: activated microglia
Settings: ibuprofen-treated animals; cited from earlier work

For `CC(C)Cc1ccc(C(C)C(=O)O)cc1` (stereo not shown) [ibuprofen], the “decrease in activated microglia” value is listed as 57%.
